Peptide text beside a SMILES is read from it. * marks the point of attachment. Cbz = O=C(OCc1ccccc1)*; CHN2 = [N-]=[N+]=C*
Experiments:
Format in all cases: cell-based, recombinant vesicular stomatitis virus
[1] = test system: rVSVs bearing SARS-CoV-2 S
[2] = test system: rVSVs bearing EBOV GP
[3] = test system: rVSVs carrying SARS-CoV 2 S

| Structure (SMILES) | entry by rVSVs bearing SARS-CoV-2 S (infection scored by eGFP expression) [1] | sensitivity of S-mediated entry compared with entry by EBOV GP [1] | entry by rVSVs bearing EBOV GP (infection scored by eGFP expression) [2] | S-mediated entry (infection scored by eGFP expression) [3] | sensitivity of S-mediated entry relative to EBOV GP-dependent entry [3] |
| --- | --- | --- | --- | --- | --- |
| Cl.N [NH4Cl] | reduced entry | comparatively less sensitive | reduced entry | – | – |
| [N-]=[N+]=CC(=O)C(Cc1ccc(O)cc1)NC(=O)C(Cc1ccccc1)NC(=O)OCc1ccccc1 (stereo not drawn) [FYdmk, Z-Phe-tyr-dmk] (Cbz-Phe-Tyr-CHN2; configuration not given here) | – | – | – | inhibited S-mediated entry | reduced sensitivity |

Source: patent US20240229066A1 (priority 2020, published 2024)
